Source: EP4342530A1, “SORTILIN MODULATORS” (Insusense ApS, priority 2022, dated 2024)
Where “and” joins values, the source holds several entries; their conditions need not be identical. Equal values may be shown once.

Legend:
[1] = biological target: T1, h-Sortilin (Homo sapiens, UniProt Q99523); assay: Neurotensin scintillation proximity assay (displacement of [3H]-neurotensin binding); details: 150 nM 6his-Sortilin, 5 nM [3H]-Neurotensin; average of at least 2 determinations; read-out: IC50 [3H]Neurotensin SPA
T1 sequence (Q99523 78-831): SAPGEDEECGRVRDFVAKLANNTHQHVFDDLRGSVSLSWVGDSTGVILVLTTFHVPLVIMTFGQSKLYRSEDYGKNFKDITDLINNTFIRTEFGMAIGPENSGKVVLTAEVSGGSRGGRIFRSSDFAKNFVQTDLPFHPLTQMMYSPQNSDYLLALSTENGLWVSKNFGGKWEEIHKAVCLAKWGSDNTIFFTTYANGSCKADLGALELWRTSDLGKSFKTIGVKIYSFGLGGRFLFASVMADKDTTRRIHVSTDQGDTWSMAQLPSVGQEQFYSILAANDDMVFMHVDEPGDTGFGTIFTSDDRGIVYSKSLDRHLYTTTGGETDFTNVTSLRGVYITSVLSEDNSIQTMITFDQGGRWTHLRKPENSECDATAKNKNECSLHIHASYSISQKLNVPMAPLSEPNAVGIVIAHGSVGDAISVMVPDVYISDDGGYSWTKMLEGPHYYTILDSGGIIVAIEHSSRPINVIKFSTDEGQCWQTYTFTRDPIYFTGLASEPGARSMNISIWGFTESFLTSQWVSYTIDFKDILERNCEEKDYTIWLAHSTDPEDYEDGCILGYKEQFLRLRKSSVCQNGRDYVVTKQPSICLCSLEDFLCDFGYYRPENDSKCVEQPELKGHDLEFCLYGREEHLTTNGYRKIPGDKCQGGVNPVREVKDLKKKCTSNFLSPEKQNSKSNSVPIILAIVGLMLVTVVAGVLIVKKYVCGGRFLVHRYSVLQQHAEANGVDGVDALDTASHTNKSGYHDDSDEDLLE
Method: The exemplified compounds of the invention were tested in a Neurotensin (NTS) scintillation proximity assay (SPA). NTS, which is a 13 amino acid neuropeptide, is a sortilin ligand. The IC50 is a measure of the amount of the compound required to inhibit the binding of NTS to sortilin by 50%. The skilled person will recognise that the lower the IC50 value, the less of the compound needed to achieve the desired effect, and as a result, the chances of undesirable off-target effects are reduced.
Compound affinity was determined by measuring the displacement of [3H]-neurotensin binding to h-Sortilin in SPA format. Total volume of 40 µl in 50 mM HEPES pH 7.4 assay buffer containing 100 mM NaCl, 2.0 mM CaCl2, 0.1% BSA and 0.1% Tween-20. Compound pre-incubation for 30 minutes at room temperature with 150 nM of 6his-Sortilin before 5 nM [3H]-Neurotensin and Ni chelate imaging beads (Perkin Elmer) were added, after 6 hours the plate was read on a ViewLux with 360 s exposure time. Dose-response evaluation of compounds was performed with 8 concentrations of drugs (covering 3 decades). IC50 values were calculated by nonlinear regression using the sigmoid concentration-response (variable slope) using CDD Vault software. All values reported are average of at least 2 determinations.

[2] = biological target: T2, Sortilin (Homo sapiens, UniProt Q99523); assay: Creoptix (GCI) binding kinetics, human Sortilin; details: Species Human, screened at 1 µM, 25 degrees Celsius
T2 construct: purchased Bio-Techne Ltd 3154-ST-050
T2 sequence (Q99523 78-755 limits assumed): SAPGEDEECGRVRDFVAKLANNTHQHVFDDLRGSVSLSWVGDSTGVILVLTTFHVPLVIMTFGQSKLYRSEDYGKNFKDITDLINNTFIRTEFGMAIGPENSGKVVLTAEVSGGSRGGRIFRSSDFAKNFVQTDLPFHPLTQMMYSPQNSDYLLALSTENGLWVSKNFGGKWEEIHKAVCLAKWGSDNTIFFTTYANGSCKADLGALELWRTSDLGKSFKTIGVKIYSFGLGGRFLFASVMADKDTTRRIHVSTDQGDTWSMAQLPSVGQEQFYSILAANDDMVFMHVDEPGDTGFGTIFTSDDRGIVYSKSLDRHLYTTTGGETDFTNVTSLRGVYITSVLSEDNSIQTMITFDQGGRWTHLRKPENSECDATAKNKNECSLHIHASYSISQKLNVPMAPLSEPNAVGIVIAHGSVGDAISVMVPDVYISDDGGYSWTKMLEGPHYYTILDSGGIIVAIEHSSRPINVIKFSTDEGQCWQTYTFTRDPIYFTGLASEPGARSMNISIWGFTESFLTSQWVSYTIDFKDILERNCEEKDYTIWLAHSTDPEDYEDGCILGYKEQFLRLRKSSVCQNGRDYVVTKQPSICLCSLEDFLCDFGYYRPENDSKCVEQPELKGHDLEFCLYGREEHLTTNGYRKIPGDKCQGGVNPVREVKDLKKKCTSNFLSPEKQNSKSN
Method: Creoptix (GCI) method - using SEQ ID NO.4 (Murine sortillin)
A protein, bound to a surface, is bathed in a solution containing potential ligands giving rise to binding kinetics to generate Kon and Koff rates, as well as a Kd.
All buffers described were filtered using a 0.2µm filter (Product number: 10300461, Nalgene) and degassed for 15 minutes prior to use.
A flow cell temperature of 25 degrees Celsius was used throughout the experiment.
A 4PCH chip was conditioned across all flow cells using 0.2 X concentration running buffer (running buffer composition: 1XHBS-N, pH 7.4, 3.4 mM EDTA, 1% DMSO) using pre-set conditioning wizard (WAVE control software) injecting: 0.1 M borate, 1 M NaCl (pH 9) followed by three start-up injections of 0.2 X running buffer.
A buffer exchange was performed and 1x running buffer (1XHBS-N, pH 7.4, 3.4 mM EDTA, 1% DMSO) used during the immobilisation procedure: An initial injection of EDC/NHS (mixed in 1:1 ratio) was performed across all 4-flow cells to activate the surface for amine coupling of ligands.
Recombinant Sortilin aliquots were thawed quickly by hand and centrifuged at 13,300 rpm for 10 minutes. A 10 µg/ml protein solution was then made in pH 5.0 acetate and injected once for 20 minutes over flow-cells 2, 3 and 4 for human, human (flow cells 2 & 3), and mouse Sortilin respectively followed by a 60 second dissociation period.
A final 7-minute passivation injection of 50 mM tris was used across all flow cells.
A flow rate of 10 µl/min was used for all conditioning and immobilisation cycles.
Compounds were screened at 1 µM using the in-built 'intermediate binders' settings: 100 ul/min, 45 s baseline, 25 s association, 300 s dissociation, with blanks every 5th sample and a DMSO correction (1.5 % DMSO at the start and end of the experiment as well as every 20 cycles. An acquisition rate of 10 Hz was used throughout the experiment.
Compounds were screened at a final assay concentration of 1 µM and a final DMSO concentration was 1 %. To achieve this, compounds were diluted in DMSO from 10 mM stocks to 100 µM (100 x final assay concentration) then diluted 1:100 in running buffer which contained no DMSO to establish a final assay concentration of compound of 1 µM and a final DMSO concentration of 1 % [DMSO].
Compounds and DMSO were mixed by plate shaking at 1000 rpm for 60 seconds using a Bioshake instrument.
A flow rate of 100 µl/min was used throughout the experiment.
Data was evaluated using the RAPID kinetic analysis tool in the GCI WAVE_control software with data fitted using a standard 1:1 kinetic BioModel.

Row | IC50 [1] | Kd ([2]; Form of Compound Free acid) | Structure (SMILES) | Kd ([2]; Form of Compound Mesylate salt)
1 | 270 nM | 107 nM | CC(C)(C)CC[C@H](NCc1ccc2c(c1)CCOC2)C(=O)O [Example 1, (S)-2-((isochroman-6-ylmethyl)amino)-5,5-dimethylhexanoic acid] | –
2 | 350 nM | 172 nM | CC(C)(C)CC[C@H](NCc1cnc2c(c1)COCC2)C(=O)O [Example 2, (2S)-5,5-dimethyl-2-[({5H,7H,8H-pyrano[4,3-b]pyridin-3-yl}methyl)amino]hexanoic acid] | –
3 | 310 nM | 63.4 nM | CC(C)(C)CC[C@H](NCc1ccc2c(c1)OCCC2)C(=O)O [Example 5, (2S)-2-{[(3,4-dihydro-2H-1-benzopyran-7-yl)methyl]amino}-5,5-dimethylhexanoic acid] | –
4 | 210 nM | 117 nM | CC(C)(C)CC[C@H](NCc1ccc2c(c1)CCC2)C(=O)O [Example 6, (2S)-2-{[(2,3-dihydro-1H-inden-5-yl)methyl]amino}-5,5-dimethylhexanoic acid] | –
5 | 140 nM | 264 nM | CC(C)(C)CC[C@H](NCc1cnc2c(c1)CCCC2)C(=O)O [Example 7, (S)-5,5-dimethyl-2-(((5,6,7,8-tetrahydroquinolin-3-yl)methyl)amino)hexanoic acid] | –
6 | 500 nM | 191 nM | CC(C)(C)CC[C@H](NCc1cnc2c(c1)CCC2)C(=O)O [Example 8, (2S)-2-[({5H,6H,7H-cyclopenta[b]pyridin-3-yl}methyl)amino]-5,5-dimethylhexanoic acid] | –
7 | 120 nM | 36.6 nM | C[C@@H](N[C@@H](CCC(C)(C)C)C(=O)O)c1ccc2c(c1)CCCC2 [Example 11, (S)-5,5-dimethyl-2-(((R)-1-(5,6,7,8-tetrahydronaphthalen-2-yl)ethyl)amino)hexanoic acid] | 40.7 nM
8 | 190 nM | 97.3 nM | CC(C)(C)CC[C@H](NCc1ccc2c(c1)NCCC2)C(=O)O [Example 17, (2S)-5,5-dimethyl-2-{[(1,2,3,4-tetrahydroquinolin-7-yl)methyl]amino}hexanoic acid] | –
9 | 260 nM | 164 nM | CN1C(=O)COc2ccc(CN[C@@H](CCC(C)(C)C)C(=O)O)cc21 [Example 21, (2S)-5,5-dimethyl-2-{[(4-methyl-3-oxo-3,4-dihydro-2H-1,4-benzoxazin-6-yl)methyl]amino}hexanoic acid] | –
10 | 470 nM | 350 nM | Cn1c(=O)oc2cc(CN[C@@H](CCC(C)(C)C)C(=O)O)ccc21 [Example 22, (2S)-5,5-dimethyl-2-{[(3-methyl-2-oxo-2,3-dihydro-1,3-benzoxazol-6-yl)methyl]amino}hexanoic acid] | –
11 | 950 nM | 563 nM and 158 nM | CN1C(=O)COc2cc(CN[C@@H](CCC(C)(C)C)C(=O)O)ccc21 [Example 25, (2S)-5,5-dimethyl-2-{[(4-methyl-3-oxo-3,4-dihydro-2H-1,4-benzoxazin-7-yl)methyl]amino}hexanoic acid] | –
12 | 220 nM | 317 nM | CN1C(=O)CCc2ccc(CN[C@@H](CCC(C)(C)C)C(=O)O)cc21 [Example 28, (2S)-5,5-dimethyl-2-{[(1-methyl-2-oxo-1,2,3,4-tetrahydroquinolin-7-yl)methyl]amino}hexanoic acid] | –
13 | 130 nM | 28 nM | CC(C)(C)CC[C@H](N[C@@H](c1cnc2c(c1)CCCC2)C(F)(F)F)C(=O)O [Example 33, (2S)-5,5-dimethyl-2-{[(1S)-2,2,2-trifluoro-1-(5,6,7,8-tetrahydroquinolin-3-yl)ethyl]amino}hexanoic acid] | –
14 | 820 nM | 216 nM | CC(C)(C)CC[C@H](NCc1cccc(Oc2ccccc2)c1)C(=O)O [Example 34] | –
15 | 340 nM | – | CC(C)(C)CC[C@H](NCc1ccc(Oc2ccccc2)nc1)C(=O)O [Example 38, (2S)-5,5-dimethyl-2-{[(6-phenoxypyridin-3-yl)methyl]amino}hexanoic acid] | 49.1 nM
16 | 120 nM | 43.9 nM | CC(C)(C)CC[C@H](N[C@@H](c1ccc2c(c1)CCCC2)C(F)F)C(=O)O [Example 45] | –
17 | 130 nM | 43.4 nM | CC(C)(C)CC[C@H](N[C@@H](c1ccc2c(c1)OCCC2)C(F)F)C(=O)O [Example 46] | –
18 | 160 nM | 75.3 nM | CC(C)(C)CC[C@H](N[C@@H](c1ccc2c(c1)CCCC2)C(F)(F)F)C(=O)O [Example 47] | –
19 | – | 46.2 nM | C[C@@H](N[C@@H](CCC(C)(C)C)C(=O)O)c1ccc2c(c1)N(C)CCC2 [Example 48] | –
20 | 220 nM | 504 nM | CC(C)(C)CC[C@H](N[C@@H](c1ccc2c(c1)CCC2)C(F)(F)F)C(=O)O [Example 49] | –

Row | Structure (SMILES) | IC50 [1] | Kd ([2]; Form of Compound Free acid) | Kd ([2]; Form of Compound Mesylate salt)
21 | C[C@@H](N[C@@H](CCC(C)(C)C)C(=O)O)c1ccc2c(c1)CCC2 [Example 13] | 210 nM | – | 57.5 nM
22 | C[C@H](N[C@@H](CCC(C)(C)C)C(=O)O)c1ccc2c(c1)CCC2 [Example 14] | 280 nM | – | 35.1 nM
23 | C[C@@H](N[C@@H](CCC(C)(C)C)C(=O)O)c1ccc(Oc2ccccc2)nc1 [Example 43] | 410 nM | 68.3 nM | –
24 | C[C@H](N[C@@H](CCC(C)(C)C)C(=O)O)c1ccc(Oc2ccccc2)nc1 [Example 44] | 740 nM | 127 nM | –
